What was measured:
HEK-293T = assay: Incucyte cell viability with HEK293T; type: toxicity, cell-based; conditions: human, 10 µM, compound concentration 10 uM
U2OS = assay: Incucyte cell viability with U2OS; type: toxicity, cell-based; conditions: human, 10 µM, compound concentration 10 uM
[1] = 0 h, replicate number 1, timepoint 0 hours
[2] = 0 h, replicate number 2, timepoint 0 hours
[3] = 6 h, replicate number 1, timepoint 6 hours
[4] = 6 h, replicate number 2, timepoint 6 hours
[5] = 12 h, replicate number 1, timepoint 12 hours
[6] = 12 h, replicate number 2, timepoint 12 hours
[7] = 18 h, replicate number 1, timepoint 18 hours
[8] = 24 h, replicate number 1, timepoint 24 hours
[9] = 18 h, replicate number 2, timepoint 18 hours
[10] = 24 h, replicate number 2, timepoint 24 hours
Also: filed as whole numbers so only -1 and 0 and 1 occur.

Compound	Growth Rate (HEK-293T; [1])	Growth Rate (HEK-293T; [2])	Growth Rate (HEK-293T; [3])	Growth Rate (HEK-293T; [4])	Growth Rate (HEK-293T; [5])	Growth Rate (HEK-293T; [6])	Growth Rate (HEK-293T; [7])	Growth Rate (HEK-293T; [8])	Growth Rate (U2OS; [1])	Growth Rate (U2OS; [6])	Growth Rate (U2OS; [7])	Growth Rate (U2OS; [9])	Growth Rate (U2OS; [8])	Growth Rate (U2OS; [10])	Growth Rate (HEK-293T; [9])	Growth Rate (U2OS; [2])	Growth Rate (U2OS; [3])	Growth Rate (U2OS; [4])	Growth Rate (U2OS; [5])
CCCn1c(=O)c2[nH]c(-c3cnn(Cc4cccc(C(F)(F)F)c4)c3)nc2n(CC)c1=O [GS 6201]	1	0	0	1	0	1	0	0	0	1	1	0	1	0					
COc1cc(N2CCN(C)CC2)ccc1Nc1ncc2c(n1)N(C)c1ccccc1C(=O)N2C	1			1		0	1	0	0		0		0		0	1	1	0	1
COc1ccc(S(=O)(=O)N(CCO)c2ccccc2CN(C)C/C=C/c2ccc(Cl)cc2)cc1.O=P(O)(O)O			0		0		0	0	0	1	0		0			1	0	1	0
S=C(NCCCc1c[nH]cn1)NCCCN(Cc1ccc(Cl)c(Cl)c1)c1ccc(Br)cn1		0	0		0		0	0			0		0				-1	0	0
O=C(Cc1ccc(-c2ccc(OCCN3CCOCC3)cc2)cn1)NCc1ccccc1 [TIRBANIBULIN]			0		0		0	0			0		0			0	1		0
C=CCn1c(=O)c2cnc(Nc3ccc(N4CCN(C)CC4)cc3)nc2n1-c1cccc(C(C)(C)O)n1 [ADAVOSERTIB]			0		0		0	0	0		0		0				0		0
O=C(Nc1ccc(Cl)cc1)Nc1cccc(-c2cccc(N3CCCC3)n2)c1	1	0	0		0		0	0	0		0		0						0
CCCS(=O)(=O)Nc1ccc(F)c(C(=O)c2c[nH]c3ncc(Cl)cc23)c1F [PLX-4720]	0	1	0		0		0	0	0	1	0		0				1		0
COCC(=O)NC/C=C/c1ccc2ncnc(Nc3ccc(Oc4ccc(C)nc4)c(C)c3)c2c1 [CP-724714]			0		0		0	0	0		0		1	0		1	1		1
CCOC(=O)c1c(C)[nH]c2ccc3c(c12)CN1CCc2cc(OC)ccc2C1O3 (configuration not stated)		0	0		0		0	0	1		0		0					1	0
CN1CCN(C(=O)C(C)(C)c2ccc(C(=O)Nc3cn4cc(-c5ccncc5)ccc4n3)cc2)CC1 [T3-CLK]		1	0		0		0	0		1	0	1	0	1		0	1		0
Cc1ccc2nc(NCCN)c3ncc(C)n3c2c1.O=C(O)C(F)(F)F.O=C(O)C(F)(F)F	0	1	0		0		0	0	0		0		0				0		0
Cl.O=c1c2cccn2c2ccccc2n1CCCN1CCC(c2ccc(Cl)cc2)CC1	0		0		0		0	0		1	1		1			0			
CCOc1cc(C(=O)N2CCC(N3CCN(C)CC3)CC2)ccc1Nc1ncc2c(n1)N(C1CCCC1)c1ccccc1C(=O)N2C		0	0		0		0	0		1	0		0			0	1		0
CCN1CCN(Cc2ccc(Nc3ncc(F)c(-c4cc(F)c5nc(C)n(C(C)C)c5c4)n3)nc2)CC1.CS(=O)(=O)O	0		0		0		0	0			0	1	0			1			1
Cl.O=C(c1ccc(Nc2nccc(-c3cc4ccccc4s3)n2)cc1)N1CCC(N2CCCC2)CC1			0		0		0	0			0		0			0			0

From ChEMBL document CHEMBL4689842, “EUbOPEN Chemogenomics Library wave 1” (2021)
